The NIST ThermoML archive (doi:10.1021/acs.jced.8b00786)
Numbers after ± are expanded uncertainties.

Details: Liquid; for viscosity: Capillary tube (Ostwald / Ubbelohde) method; for mass density: Vibrating tube method

## CC(C)CCCC(C)CCCC(C)CCCCC(C)CCCC(C)CCCC(C)C (stereo not given) [2,6,10,15,19,23-hexamethyltetracosane]
313.15 K, 5700 kPa
  viscosity: 16.52 ± 0.38 mPa·s
  mass density: 798.1 ± 2.4 kg/m3
313.15 K, 13500 kPa
  viscosity: 19.37 ± 0.44 mPa·s
  mass density: 804.3 ± 2.4 kg/m3
313.15 K, 23500 kPa
  viscosity: 23.38 ± 0.53 mPa·s
  mass density: 811.4 ± 2.5 kg/m3
313.15 K, 45700 kPa
  viscosity: 35.26 ± 0.82 mPa·s
  mass density: 822.6 ± 2.5 kg/m3
313.15 K, 68000 kPa
  viscosity: 52.85 ± 1.2 mPa·s
  mass density: 832.5 ± 2.6 kg/m3
338.15 K, 7900 kPa
  viscosity: 7.82 ± 0.18 mPa·s
  mass density: 783.2 ± 2.4 kg/m3
338.15 K, 11000 kPa
  viscosity: 8.05 ± 0.21 mPa·s
  mass density: 785.2 ± 2.4 kg/m3
338.15 K, 22500 kPa
  viscosity: 10.19 ± 0.26 mPa·s
  mass density: 793.3 ± 2.4 kg/m3
338.15 K, 45600 kPa
  viscosity: 14.4 ± 0.37 mPa·s
  mass density: 807.5 ± 2.5 kg/m3
338.15 K, 60500 kPa
  viscosity: 18.07 ± 0.41 mPa·s
  mass density: 814.6 ± 2.5 kg/m3
338.15 K, 76300 kPa
  viscosity: 22.98 ± 0.71 mPa·s
  mass density: 820.5 ± 2.6 kg/m3
363.15 K, 10600 kPa
  viscosity: 4.5 ± 0.11 mPa·s
  mass density: 769.9 ± 2.3 kg/m3
363.15 K, 21500 kPa
  viscosity: 5.38 ± 0.14 mPa·s
  mass density: 777.9 ± 2.4 kg/m3
363.15 K, 42500 kPa
  viscosity: 7.21 ± 0.19 mPa·s
  mass density: 791.1 ± 2.4 kg/m3
363.15 K, 63700 kPa
  viscosity: 9.47 ± 0.25 mPa·s
  mass density: 802.4 ± 2.5 kg/m3
